This is an account of results in ChEMBL document CHEMBL5356998, “Diaporaustalides A-L, Austalide Meroterpenoids from a Plant Endophytic Diaporthe sp” (J Nat Prod, 2024).

Structures are written as SMILES.

A short description of data set [1]: Cytotoxicity against mouse splenocyte by MTT assay. It is filed as toxicity, cell-based. As to conditions: mouse splenocytes. Background: Tetrazolium dyes change colour on reduction, which living cells bring about.
In data set [2] the test system is Splenocyte. Put plainly: Immunosuppressive activity in mouse splenocyte assessed as reduction in ConA-induced mouse T-cell proliferation. The format is functional, cell-based.
In data set [3] the test system is Splenocyte. Put plainly: Immunosuppressive activity in mouse splenocyte assessed as reduction in LPS-induced mouse B-cell proliferation. It is filed as functional, cell-based.
A short description of data set [4]: Selectivity index, ratio of CC50 for cytotoxicity against mouse splenocyte to IC50 for immunosuppressive activity in mouse splenocyte assessed as reduction in ConA-induced mouse T-cell proliferation. To be noted: mouse splenocytes, read-out: Ratio CC50/IC50.
The nature of data set [5]: Selectivity index, ratio of CC50 for cytotoxicity against mouse splenocyte to IC50 for immunosuppressive activity in mouse splenocyte assessed as reduction in LPS-induced mouse B-cell proliferation. As to conditions: mouse splenocytes, read-out: Ratio CC50/IC50.
In data set [6] the target is Alpha-glucosidase (Saccharomyces cerevisiae S288c, UniProt P53341+P38158+P07265). Briefly: Inhibition of Saccharomyces cerevisiae alpha glucosidase using p-nitrophenyl glucopyranoside as substrate preincubated for 10 mins followed by substrate addition and measured after 20 mins by microplate reader analysis. It is filed as protein assay.
Data set [7] relates to B-cell. Briefly: Downregulation od IL-6 expression in LPS induced B cell (unknown origin) incubated for 48 hrs by ELISA method. The format is functional, cell-based. To be noted: dose 1-25 µM. (ELISA stands for enzyme-linked immunosorbent assay.)
Data set [8] deals with HeLa. Briefly: Cytotoxicity against human HeLa cells by MTT assay. The format is functional, cell-based.

In general, CC50 refers to the concentration giving 50% cytotoxicity. A low value points to greater toxicity to the cells. Usually IC50 stands for the concentration that gives 50% inhibition. In data set [1], `COc1c2c(c(C=O)c3c1C(=O)OC3)O[C@]1(C)CC[C@@]3(O)[C@@](C)(COC(C)=O)CCC[C@]3(C)[C@H]1C2` came in with a CC50 of more than 40 µM. Besides, the IC50 in data set [2] amounted to 28 µM; in data set [3], 17 µM; in data set [6], 166 µM. Moreover, the selectivity ratio was more than 1.4 in data set [4] and more than 2.3 in data set [5].
The molecule `COc1c2c(c(C(OC)OC)c3c1C(=O)OC3)O[C@]1(C)CC[C@@]3(O)C(C)(C)CCC[C@]3(C)[C@H]1C2` came in with a CC50 in data set [1] of more than 50 µM. The IC50 is more than 50 µM in data set [2], 44 µM in data set [3] and 92 µM in data set [6].
For `COc1c2c(c(C=O)c3c1C(=O)OC3)O[C@]1(C)CC[C@@]3(O)C(C)(C)CCC[C@]3(C)[C@H]1C2`, the half-maximal cytotoxic concentration (CC50) in data set [1] was more than 50 µM. The 50% inhibitory concentration (IC50) is 42 µM in data set [2], 3.8 µM in data set [3] and 61 µM in data set [6]. Further, the selectivity ratio in data set [4] was 1.1; in data set [5] it was more than 13. Moreover, the Activity result in data set [7] was “Dose-Dependent Effect”.
As to `COc1c2c(c(C=O)c3c1C(=O)OC3)O[C@]1(C)CC[C@@]3(O)C(C)(C)CC[C@@H](O)[C@]3(C)[C@H]1C2`, the CC50 in data set [1] is more than 50 µM. The IC50 was more than 50 µM in data set [2] and 31 µM in data set [3]. Further, the selectivity ratio in data set [5] is more than 1.6.
In data set [1], `COc1c2c(c(C=O)c3c1C(=O)OC3)O[C@]1(C)CC[C@@]3(O)[C@@](C)(C=O)CCC[C@]3(C)[C@H]1C2` came in with a CC50 of 43 µM. Further, the half-inhibitory concentration (IC50) in data set [2] was 37 µM; in data set [3], 39 µM. Besides, the selectivity ratio came to 1.2 in data set [4] and 1.1 in data set [5].
`COc1c2c(c(C=O)c3c1C(=O)OC3)O[C@]1(C)CC[C@@]3(O)[C@@](C)(C(=O)O)CCC[C@]3(C)[C@H]1C2` came in with a half-maximal cytotoxic concentration (CC50) in data set [1] of more than 50 µM. Also, the results for the IC50 in data set [2] and in data set [3] were 35 µM and more than 50 µM, respectively. In addition, the selectivity ratio in data set [4] is more than 1.4.
As for `COc1c2c(c(C=O)c3c1C(=O)OC3)O[C@]1(C)[C@H](O)C[C@@]3(O)C(C)(C)CCC[C@]3(C)[C@H]1C2`, in data set [1], the CC50 amounted to 23 µM. The IC50 in data set [2] is 22 µM; in data set [3], 8.5 µM. Moreover, the values for the selectivity ratio in data set [4] and in data set [5] were more than 1 and 2.7, respectively.
`COc1c(C)c2c(c(O)c1C/C=C(\C)CCC(=O)OCCN1CCOCC1)C(=O)OC2` [MYCOPHENOLATE MOFETIL]: the IC50 in data set [3] came out at 1 µM.
On to `COc1c2c(c(C=O)c3c1C(=O)OC3)O[C@]1(C)CC[C@@]3(O)[C@@](C)(CO)CCC[C@]3(C)[C@H]1C2`, for which the CC50 in data set [1] is more than 50 µM. Further, the IC50 is 25 µM in data set [2] and more than 50 µM in data set [3]. Moreover, in data set [4], the selectivity ratio was more than 2.
Regarding `COc1c2c(c(C=O)c3c1C(=O)OC3)O[C@]1(C)CC[C@H]3C(C)(C)[C@@H](O)CC[C@]3(C)[C@H]1C2`, the CC50 in data set [1] was more than 50 µM. Moreover, the 50% inhibitory concentration (IC50) is 35 µM in data set [2], more than 50 µM in data set [3] and 9.6 µM in data set [8]. Moreover, in data set [4], the selectivity ratio is more than 1.4.
As to `COc1c2c(c(C=O)c3c1C(=O)OC3)O[C@]1(C)CC[C@@]3(O)C(C)(C)[C@H](O)CC[C@]3(C)[C@H]1C2`, the CC50 in data set [1] was more than 50 µM. In addition, the IC50 in data set [2] and in data set [3] was more than 50 µM in each case.
For `COc1c2c(c(C=O)c3c1C(=O)OC3)O[C@]1(C)CC[C@H]3C(C)(C)[C@H](O)CC[C@]3(C)[C@H]1C2`, the midpoint of cytotoxicity in data set [1], the CC50, lay at 24 µM. Besides, the IC50 stood at 11 µM in data set [2] and 6.7 µM in data set [3]. Moreover, the selectivity ratio in data set [4] came to 2.2; in data set [5], 3.6. Moreover, the Activity result in data set [7] was “Dose-Dependent Effect”.
For the molecule `COc1c2c(c(C=O)c3c1C(=O)OC3)O[C@]1(C)CC[C@@]3(O)C(C)(C)[C@@H](O)CC[C@]3(C)[C@H]1C2`, the CC50 in data set [1] was more than 50 µM. Moreover, the IC50 in data set [2] is 28 µM; in data set [3] it was more than 50 µM. Moreover, the selectivity ratio in data set [4] was more than 1.7.
